Here are results for twelve compounds from ChEMBL document CHEMBL5725517, “Azapeptides as CD36 binding compounds” (2017).

pEC50: −log10 of the molar value. Starred links: 1 amine or outer side, 2 acyl side, 3 side chain; linkers in the order of their positions; H or OH if unused. Non-standard residues stand in square brackets, D forms with d. Residues, ends and D or L forms follow the SMILES beside them. X4 = O=C(N(Cc1ccc(-c2ccccc2)cc1)N[*:1])[*:2]; azaTyr = O=C(N(Cc1ccc(O)cc1)N[*:1])[*:2]; X3 = O=C(N(Cc1cccc2ccccc12)N[*:1])[*:2]; azaPhe = O=C(N(Cc1ccccc1)N[*:1])[*:2]; X2 = O=C(N(CCc1ccccc1)N[*:1])[*:2]; azaLeu = CC(C)CN(N[*:1])C(=O)[*:2]; X1 = O=C(N(CC1CCCCC1)N[*:1])[*:2]

The test can be described thus: HS-R1a radioreceptor assay: GHS-R1a radioreceptor assay using LLCPK-1 membranes overexpressing GSH-R1a and radioiodinated (1-28) rat ghrelin as tracer.
As to `C[C@H](NC(=O)N(Cc1ccccc1)NC(=O)[C@@H](N)Cc1cnc[nH]1)C(=O)N[C@@H](Cc1c[nH]c2ccccc12)C(=O)N[C@H](Cc1ccccc1)C(=O)N[C@@H](CCCCN)C(N)=O` (H-H[azaPhe]AW[dF]K-NH2), the pEC50 is 4.79.

Turning to `C[C@H](NC(=O)[C@@H](Cc1c[nH]c2ccccc12)NC(=O)[C@@H](N)Cc1cnc[nH]1)C(=O)NN(CC1CCCCC1)C(=O)N[C@H](Cc1ccccc1)C(=O)N[C@@H](CCCCN)C(N)=O` (H-H[dW]A[X1][dF]K-NH2), the negative-log EC50 (pEC50) is 5.37.

Turning to `C[C@H](NC(=O)N(CC1CCCCC1)NC(=O)[C@@H](N)Cc1cnc[nH]1)C(=O)N[C@@H](Cc1c[nH]c2ccccc12)C(=O)N[C@H](Cc1ccccc1)C(=O)N[C@@H](CCCCN)C(N)=O` (H-H[X1]AW[dF]K-NH2), the negative-log EC50 (pEC50) is 5.26.

In turn, `C[C@H](NC(=O)[C@@H](Cc1c[nH]c2ccccc12)NC(=O)[C@@H](N)Cc1cnc[nH]1)C(=O)NN(Cc1ccccc1)C(=O)N[C@H](Cc1ccccc1)C(=O)N[C@@H](CCCCN)C(N)=O` (H-H[dW]A[azaPhe][dF]K-NH2) had a pEC50 of 5.56.

`C[C@H](NC(=O)[C@@H](Cc1c[nH]c2ccccc12)NC(=O)[C@@H](N)Cc1cnc[nH]1)C(=O)NN(Cc1ccc(O)cc1)C(=O)N[C@H](Cc1ccccc1)C(=O)N[C@@H](CCCCN)C(N)=O` (H-H[dW]A[azaTyr][dF]K-NH2) showed a pEC50 of 4.80.

Compound `CC(C)CN(NC(=O)[C@@H](Cc1c[nH]c2ccccc12)NC(=O)[C@@H](N)Cc1cnc[nH]1)C(=O)N[C@@H](Cc1c[nH]c2ccccc12)C(=O)N[C@H](Cc1ccccc1)C(=O)N[C@@H](CCCCN)C(N)=O` (H-H[dW][azaLeu]W[dF]K-NH2) showed a pEC50 of 5.92.

For the compound `C[C@H](NC(=O)[C@@H](Cc1c[nH]c2ccccc12)NC(=O)[C@@H](N)Cc1cnc[nH]1)C(=O)N[C@@H](Cc1ccc(O)cc1)C(=O)N[C@H](Cc1ccccc1)C(=O)N[C@@H](CCCCN)C(N)=O` (H-H[dW]AY[dF]K-NH2), the pEC50 is 6.11.

`C[C@H](NC(=O)[C@@H](Cc1c[nH]c2ccccc12)NC(=O)[C@@H](N)Cc1cnc[nH]1)C(=O)N[C@H](Cc1ccc(O)cc1)C(=O)N[C@H](Cc1ccccc1)C(=O)N[C@@H](CCCCN)C(N)=O` (H-H[dW]A[dY][dF]K-NH2): the negative-log EC50 (pEC50) was 5.49.

Compound `C[C@H](NC(=O)[C@@H](Cc1c[nH]c2ccccc12)NC(=O)[C@@H](N)Cc1cnc[nH]1)C(=O)NN(Cc1cccc2ccccc12)C(=O)N[C@H](Cc1ccccc1)C(=O)N[C@@H](CCCCN)C(N)=O` (H-H[dW]A[X3][dF]K-NH2) showed a pEC50 of 6.14.

With `C[C@H](NC(=O)[C@@H](Cc1c[nH]c2ccccc12)NC(=O)[C@@H](N)Cc1cnc[nH]1)C(=O)NN(CCc1ccccc1)C(=O)N[C@H](Cc1ccccc1)C(=O)N[C@@H](CCCCN)C(N)=O` (H-H[dW]A[X2][dF]K-NH2), the negative logarithm of the EC50 (pEC50) is 5.43.

Regarding `CC(C)CN(NC(=O)[C@H](C)NC(=O)[C@@H](Cc1c[nH]c2ccccc12)NC(=O)[C@@H](N)Cc1cnc[nH]1)C(=O)N[C@H](Cc1ccccc1)C(=O)N[C@@H](CCCCN)C(N)=O` (H-H[dW]A[azaLeu][dF]K-NH2), the pEC50 is 4.71.

`C[C@H](NC(=O)[C@@H](Cc1c[nH]c2ccccc12)NC(=O)[C@@H](N)Cc1cnc[nH]1)C(=O)NN(Cc1ccc(-c2ccccc2)cc1)C(=O)N[C@H](Cc1ccccc1)C(=O)N[C@@H](CCCCN)C(N)=O` (H-H[dW]A[X4][dF]K-NH2): the pEC50 was 5.87.

The term pEC50 denotes the negative decadic logarithm of the EC50, by convention in mol/L. Lower therefore signals a high EC50.
